Patent publication US20220340875A1, “METHODS OF CULTURING AND/OR EXPANDING STEM CELLS AND/OR LINEAGE COMMITTED PROGENITOR CELLS USING AMIDO COMPOUNDS” (IDEAYA BIOSCIENCES, INC., priority 2018, published 2022)

molecular target: T1, hAhR (Homo sapiens, UniProt P35869); experiment: AhR DRE-luciferase reporter transcriptional assay, antagonist mode (TCDD-induced); format: cell-based; settings: HEPG2 DRE-Luc cells, 3 nM TCDD, 24 hour incubation, relative IC50
T1 construct: Stably integrated DRE-luciferase cell lines were generated by transducing the both cell lines with Cignal XRE luciferase reporter (Qiagen) lentiviral particles; endogenous in cells
T1 sequence (P35869 11-848): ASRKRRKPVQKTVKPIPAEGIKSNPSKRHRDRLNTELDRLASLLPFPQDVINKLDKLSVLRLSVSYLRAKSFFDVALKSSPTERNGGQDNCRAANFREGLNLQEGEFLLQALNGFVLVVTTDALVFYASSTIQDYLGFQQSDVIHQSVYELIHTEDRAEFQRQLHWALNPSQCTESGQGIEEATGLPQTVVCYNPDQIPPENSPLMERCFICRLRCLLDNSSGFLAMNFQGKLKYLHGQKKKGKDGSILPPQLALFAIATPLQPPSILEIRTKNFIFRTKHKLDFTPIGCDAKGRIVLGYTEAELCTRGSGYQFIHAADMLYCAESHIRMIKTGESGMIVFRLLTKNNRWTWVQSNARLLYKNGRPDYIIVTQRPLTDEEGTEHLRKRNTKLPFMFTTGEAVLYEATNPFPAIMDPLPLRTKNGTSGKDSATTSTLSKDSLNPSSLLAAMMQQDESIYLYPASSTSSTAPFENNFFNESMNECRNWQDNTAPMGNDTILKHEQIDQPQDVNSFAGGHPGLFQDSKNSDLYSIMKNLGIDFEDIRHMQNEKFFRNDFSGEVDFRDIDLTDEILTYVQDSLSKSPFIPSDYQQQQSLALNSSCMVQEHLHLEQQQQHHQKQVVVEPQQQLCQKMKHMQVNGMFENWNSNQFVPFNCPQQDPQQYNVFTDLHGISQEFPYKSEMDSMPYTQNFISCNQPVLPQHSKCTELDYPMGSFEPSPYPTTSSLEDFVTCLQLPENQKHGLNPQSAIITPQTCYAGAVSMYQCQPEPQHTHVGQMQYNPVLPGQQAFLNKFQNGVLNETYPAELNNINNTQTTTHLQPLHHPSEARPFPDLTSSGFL
Method in brief: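 HepG2 cells carrying a stably integrated DRE-luciferase reporter, in OptiMEM with 0.5% FBS; semi-log compound doses added with 3 nM TCDD, 24 h incubation, firefly luciferase read-out. Percent maximal activity normalised between vehicle ± TCDD; relative IC50 taken as half-reduction between curve plateaus.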

Row | IC50 [nM] | SMILES
1 | 1000 to 10000 | Cc1cc(-c2ccc3cccc(F)c3n2)ccc1NC(=O)OC(C)(C)C [Example 022, tert-butyl (4-(8-fluoroquinolin-2-yl)-2-methylphenyl)carbamate]
2 | 200 to 500 | C#Cc1ccc2nc(-c3ccc(NC(=O)c4ccnn4C)c(C)c3)ccc2c1 [Example 072, N-(4-(6-ethynylquinolin-2-yl)-2-methylphenyl)-1-methyl-1H-pyrazole-5-carboxamide]
3 | 1000 to 10000 | Cc1cc(-c2ccc3cnn(C)c3c2)ccc1NC(=O)c1ccnn1C [Example 090, 1-Methyl-N-(2-methyl-4-(1-methyl-1H-indazol-6-yl)phenyl)-1H-pyrazole-5-carboxamide]
4 | 200 to 500 | Cc1cc(-c2ncc3cc(C(F)(F)F)ccc3n2)ccc1N(C)C(=O)N(C)C [Example 129, 1,1,3-trimethyl-3-(2-methyl-4-(6-(trifluoromethyl)quinazolin-2-yl)phenyl)urea]
5 | 1000 to 10000 | Cc1cc(C(F)(F)F)nc2cnc(-c3ccc(NC(=O)C4CCOCC4)c(F)c3)nc12 [Example 186, N-(2-fluoro-4-(8-methyl-6-(trifluoromethyl)pyrido[3,2-d]pyrimidin-2-yl)phenyl)tetrahydro-2H-pyran-4-carboxamide]
6 | 500 to 1000 | Cc1cc(-c2ccc3cc(F)ccc3n2)ccc1NC(=O)c1cnoc1C [Example 038, N-(4-(6-fluoroquinolin-2-yl)-2-methylphenyl)-5-methylisoxazole-4-carboxamide]
7 | 1000 to 10000 | Cc1cc(-c2ccc3ncn(C)c3c2)ccc1NC(=O)c1ccnn1C [Example 089, 1-Methyl-N-(2-methyl-4-(1-methyl-1H-benzo[d]imidazol-6-yl)phenyl)-1H-pyrazole-5-carboxamide]
8 | < 200 | Cc1cc(C(=O)Nc2ccc(-c3ncc4cc(C(F)(F)F)ccc4n3)cc2C)c(C)cn1 [Example 125, 2,5-dimethyl-N-(2-methyl-4-(6-(trifluoromethyl)quinazolin-2-yl)phenyl)isonicotinamide]
9 | < 200 | Cc1cc(-c2ncc3cc(C(F)(F)F)ccc3n2)ccc1N(C)C(=O)c1ccncc1 [Example 116, N-methyl-N-(2-methyl-4-(6-(trifluoromethyl)quinazolin-2-yl)phenyl)isonicotinamide]
10 | < 200 | Cc1cc(-c2ccc3cccc(C)c3n2)ccc1NC(=O)c1ccnn1C [Example 020, 1-Methyl-N-(2-methyl-4-(8-methylquinolin-2-yl)phenyl)-1H-pyrazole-5-carboxamide]
11 | < 200 | CC(=O)N(C)c1ccc(-c2ncc3cc(C(F)(F)F)ccc3n2)cc1C [Example 130, N-methyl-N-(2-methyl-4-(6-(trifluoromethyl)quinazolin-2-yl)phenyl)acetamide]
12 | < 200 | CCN(C(=O)c1ccnn1C)c1ccc(-c2ccc3cc(C(F)(F)F)ccc3n2)cc1C [Example 004, N-Ethyl-1-methyl-N-(2-methyl-4-(6-(trifluoromethyl)quinolin-2-yl)phenyl)-1H-pyrazole-5-carboxamide]
13 | < 200 | Cc1cc(-c2ccc3cc(C(F)(F)F)ccc3n2)cc(F)c1N(C)C(=O)c1ccnn1C [Example 007, N-(2-fluoro-6-methyl-4-(6-(trifluoromethyl)quinolin-2-yl)phenyl)-N,1-dimethyl-1H-pyrazole-5-carboxamide]
14 | 1000 to 10000 | Cc1cc(-c2ncc3nc(C(F)(F)F)cc(C)c3n2)ccc1N(C)C(=O)c1ccnn1CCOP(=O)(O)O [Example 194, 2-[5-[methyl([2-methyl-4-[8-methyl-6-(trifluoromethyl)pyrido[3,2-d]pyrimidin-2-yl]phenyl])carbamoyl]-1H-pyrazol-1-yl]ethyl disodium phosphate]
15 | 1000 to 10000 | Cc1cc(-c2ccc3cc(-c4nnn[nH]4)ccc3n2)ccc1NC(=O)c1ccnn1C [Example 063, N-(4-(6-(1H-tetrazol-5-yl)quinolin-2-yl)-2-methylphenyl)-1-methyl-1H-pyrazole-5-carboxamide]
16 | 1000 to 10000 | Cc1cc(-c2ncc3cc(C(F)(F)F)ccc3n2)ccc1N(C)C(=O)c1nnn[nH]1 [Example 133, N-methyl-N-(2-methyl-4-(6-(trifluoromethyl)quinazolin-2-yl)phenyl)-1H-tetrazole-5-carboxamide]
17 | 1000 to 10000 | Cc1c(-c2ccc3cc(C(F)(F)F)ccc3n2)ccc(NC(=O)c2ccnn2C)c1F [Example 005, N-(2-fluoro-3-methyl-4-(6-(trifluoromethyl)quinolin-2-yl)phenyl)-1-methyl-1H-pyrazole-5-carboxamide]

Row | IC50 [nM] | SMILES
18 | 200 to 500 | Cc1cc(-c2ccc3c(C(F)(F)F)cccc3n2)ccc1NC(=O)c1ccnn1C [Example 057, 1-methyl-N-(2-methyl-4-(5-(trifluoromethyl)quinolin-2-yl)phenyl)-1H-pyrazole-5-carboxamide]
19 | 500 to 1000 | Cc1cc(-c2cc(C)c3ccccc3n2)ccc1NC(=O)c1ccnn1C [Example 016, 1-Methyl-N-(2-methyl-4-(4-methylquinolin-2-yl)phenyl)-1H-pyrazole-5-carboxamide]
20 | 1000 to 10000 | Cc1cc(-c2ccc3cc(F)cc(C(C)C)c3n2)ccc1NC(=O)c1ccnn1C [Example 055, N-(4-(6-fluoro-8-isopropylquinolin-2-yl)-2-methylphenyl)-1-methyl-1H-pyrazole-5-carboxamide]
21 | 200 to 500 | Cc1cc(C(=O)N(C)c2ccc(-c3ncc4nc(OC(F)(F)F)cc(C)c4n3)cc2C)ccn1 [Example 161, N,2-dimethyl-N-(2-methyl-4-(8-methyl-6-(trifluoromethoxy)pyrido[3,2-d]pyrimidin-2-yl)phenyl)isonicotinamide]
22 | < 200 | Cc1cc(-c2ncc3nc(C(F)(F)F)cc(C)c3n2)ccc1N(C)C(=O)c1ccnc(C(N)=O)c1 [Example 168, N4-methyl-N4-(2-methyl-4-(8-methyl-6-(trifluoromethyl)pyrido[3,2-d]pyrimidin-2-yl)phenyl)pyridine-2,4-dicarboxamide]
23 | < 200 | Cc1cc(C(=O)Nc2ccc(-c3ncc4nc(C(F)(F)F)cc(C)c4n3)cc2F)ccn1 [Example 164, N-(2-fluoro-4-(8-methyl-6-(trifluoromethyl)pyrido[3,2-d]pyrimidin-2-yl)phenyl)-2-methylisonicotinamide]
24 | < 200 | Cc1cc(-c2ncc3cc(C(F)(F)F)ccc3n2)ccc1N(C)C(=O)c1ccnn1C [Example 140, N,1-Dimethyl-N-(2-methyl-4-(6-(trifluoromethyl)quinazolin-2-yl)phenyl)-1H-pyrazole-5-carboxamide]
25 | 1000 to 10000 | Cc1cc(-c2ccc3c(ccn3C)n2)ccc1NC(=O)c1ccnn1C [Example 085, 1-methyl-N-(2-methyl-4-(1-methyl-1H-pyrrolo[3,2-b]pyridin-5-yl)phenyl)-1H-pyrazole-5-carboxamide]
26 | < 200 | Cc1cc(-c2ncc3cc(C(F)(F)F)ccc3n2)ccc1NC(=O)c1cn(C)nc1C [Example 219, 1,3-dimethyl-N-(2-methyl-4-(6-(trifluoromethyl)quinazolin-2-yl)phenyl)-1H-pyrazole-4-carboxamide]
27 | 500 to 1000 | Cc1cc(-c2ccc3cc(F)ccc3n2)ccc1NC(=O)c1cccnc1 [Example 027, N-(4-(6-fluoroquinolin-2-yl)-2-methylphenyl)nicotinamide]
28 | 1000 to 10000 | Cc1cc(-c2ccc3cc(C(F)(F)F)ccc3n2)c(C)cc1NC(=O)c1nn(C)cc1C [Example 208, N-(2,5-dimethyl-4-(6-(trifluoromethyl)quinolin-2-yl)phenyl)-1,4-dimethyl-1H-pyrazole-3-carboxamide]
29 | 200 to 500 | Cc1cc(-c2ccc3cc(F)cc(C#N)c3n2)ccc1NC(=O)c1ccnn1C [Example 054, N-(4-(8-cyano-6-fluoroquinolin-2-yl)-2-methylphenyl)-1-methyl-1H-pyrazole-5-carboxamide]
30 | < 200 | Cc1cc(C(=O)Nc2ccc(-c3ncc4nc(OC(F)(F)F)cc(C)c4n3)cc2C)ccn1 [Example 160, 2-methyl-N-(2-methyl-4-(8-methyl-6-(trifluoromethoxy)pyrido[3,2-d]-pyrimidin-2-yl)phenyl)isonicotinamide]
31 | < 200 | Cc1cc(-c2ccc3cccc(Cl)c3n2)ccc1NC(=O)c1ccnn1C [Example 012, N-(4-(8-chloroquinolin-2-yl)-2-methylphenyl)-1-methyl-1H-pyrazole-5-carboxamide]
32 | 500 to 1000 | Cc1cc(-c2ccc3cncc(C)c3c2)ccc1NC(=O)c1ccnn1C [Example 061, 1-methyl-N-(2-methyl-4-(4-methylisoquinolin-6-yl)phenyl)-1H-pyrazole-5-carboxamide]
33 | < 200 | Cc1cc(-c2ccc3nc(C(F)(F)F)cc(C)c3n2)ccc1NC(=O)c1ccnn1C [Example 105, 1-methyl-N-(2-methyl-4-(8-methyl-6-(trifluoromethyl)-1,5-naphthyridin-2-yl)phenyl)-1H-pyrazole-5-carboxamide]
